Measured values from publication PMC12621367, “Salvianolic acid C inhibits methane emissions in dairy cows by targeting MCR and reshaping the rumen microbial community” (Journal of Animal Science and Biotechnology, 2025).

Molecular target: T1, Methyl-coenzyme M reductase (MCR)
T1 construct: gene mcrA; with McrB and McrG (β and γ subunits)
Assay: MCR activity inhibition with a microbial MCR ELISA kit, dose-response, OD […] nm
Assay type: biochemical, Methanothermobacter marburgensis

O=C(/C=C/c1ccc(O)c2oc(-c3ccc(O)c(O)c3)cc12)O[C@H](Cc1ccc(O)c(O)c1)C(=O)O [SAC, Salvianolic acid C]
IC50: 692 µM
